According to PubChem BioAssay AID248 (DTP/NCI, 2004):
“And” between values parts separate entries of the source, which are not always exact repeats. Identical values can stand only once. Toxic doses and inconclusive results are not listed. No stated cut-off is given here; in the data, active means T/C of 150% or more; inactive means T/C below 125%.

Tested on: L1210 leukemia ip in BDF1 mice, survival T/C
Assay: NCI In Vivo Anticancer Drug Screen. Data for tumor model L1210 Leukemia (intraperitoneal) in B6D2F1 (BDF1) mice
Settings: endpoint: mean survival time, higher = longer survival
Outline: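 Antitumor effect is assessed in tumor-bearing animals. Survival in the compound arm is compared with a vehicle-dosed control arm and expressed as their quotient.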

[1] = dose: 100.0 mg/kg/injection, schedule: Q01DX001 (ip), vehicle: saline
[2] = dose: 200.0 mg/kg/injection, schedule: Q01DX001 (ip), vehicle: saline
[3] = dose: 400.0 mg/kg/injection, schedule: Q01DX001 (ip), vehicle: saline
[4] = dose: 100.0 mg/kg/injection, schedule: Q04DX003 (ip), vehicle: saline
[5] = dose: 200.0 mg/kg/injection, schedule: Q04DX003 (ip), vehicle: saline
[6] = dose: 100.0 mg/kg/injection, schedule: Q04DX003 (ip), vehicle: saline with Tween-80
[7] = dose: 200.0 mg/kg/injection, schedule: Q04DX003 (ip), vehicle: saline with Tween-80
[8] = dose: 400.0 mg/kg/injection, schedule: Q04DX003 (ip), vehicle: saline with Tween-80
[9] = dose: 100.0 mg/kg/injection, schedule: Q01DX009 (ip), vehicle: Klucel (hydroxypropylcellulose) (HPC)
[10] = dose: 200.0 mg/kg/injection, schedule: Q01DX009 (ip), vehicle: Klucel (hydroxypropylcellulose) (HPC)
[11] = dose: 50.0 mg/kg/injection, schedule: Q04DX002 (ip), vehicle: saline with Tween-80
[12] = dose: 100.0 mg/kg/injection, schedule: Q04DX002 (ip), vehicle: saline with Tween-80
[13] = dose: 100.0 mg/kg/injection, schedule: Q04DX003 (ip), vehicle: Klucel (hydroxypropylcellulose) (HPC)
[14] = dose: 200.0 mg/kg/injection, schedule: Q04DX003 (ip), vehicle: Klucel (hydroxypropylcellulose) (HPC)
[15] = dose: 400.0 mg/kg/injection, schedule: Q04DX003 (ip), vehicle: Klucel (hydroxypropylcellulose) (HPC)

Measured: T/C

ClCc1c2ccccc2c(CCl)c2ccccc12
inactive: dose: 0.9 mg/kg/injection, schedule: Q01DX009 (ip), vehicle: saline with Tween-80 118 % of control | dose: 1.35 mg/kg/injection, schedule: Q01DX009 (ip), vehicle: saline with Tween-80 120 % of control | dose: 2.05 mg/kg/injection, schedule: Q01DX009 (ip), vehicle: saline with Tween-80 111 % of control | dose: 2.08 mg/kg/injection, schedule: Q01DX009 (ip), vehicle: saline 120 % of control | dose: 3.12 mg/kg/injection, schedule: Q01DX009 (ip), vehicle: saline 111 % of control | dose: 4.0 mg/kg/injection, schedule: Q01DX009 (ip), vehicle: carboxymethylcellulose (CMC) 110 % of control | dose: 4.68 mg/kg/injection, schedule: Q01DX009 (ip), vehicle: saline with Tween-80 94 % of control | dose: 4.68 mg/kg/injection, schedule: Q01DX009 (ip), vehicle: saline 98 % of control | dose: 5.0 mg/kg/injection, schedule: Q01DX009 (ip), vehicle: carboxymethylcellulose (CMC) 121 % of control | dose: 6.2 mg/kg/injection, schedule: Q01DX015 (ip), vehicle: carboxymethylcellulose (CMC) 112 % of control | dose: 7.0 mg/kg/injection, schedule: Q01DX001 (ip), vehicle: saline 114 % of control | dose: 9.3 mg/kg/injection, schedule: Q01DX015 (ip), vehicle: carboxymethylcellulose (CMC) 106 % of control | dose: 14.0 mg/kg/injection, schedule: Q01DX001 (ip), vehicle: saline 104 % of control | dose: 14.0 mg/kg/injection, schedule: Q01DX015 (ip), vehicle: carboxymethylcellulose (CMC) 104 % of control | dose: 16.0 mg/kg/injection, schedule: Q01DX009 (ip), vehicle: carboxymethylcellulose (CMC) 119 % of control | dose: 20.0 mg/kg/injection, schedule: Q01DX009 (ip), vehicle: carboxymethylcellulose (CMC) 123 % of control | dose: 28.0 mg/kg/injection, schedule: Q01DX001 (ip), vehicle: saline 104 % of control | dose: 56.0 mg/kg/injection, schedule: Q01DX001 (ip), vehicle: saline 109 % of control | dose: 88.8 mg/kg/injection, schedule: Q01DX001 (ip), vehicle: saline 113 % of control | [1] 118 % of control | dose: 112.0 mg/kg/injection, schedule: Q01DX001 (ip), vehicle: saline 109 % of control | [2] 109 % of control | dose: 300.0 mg/kg/injection, schedule: Q01DX001 (ip), vehicle: saline 109 % of control | [3] 92 % of control

O=C(Nc1cccc(CSc2nc3nc[nH]c(=O)c3[nH]2)c1)Oc1ccccc1
inactive: dose: 50.0 mg/kg/injection, schedule: Q01DX001 (ip), vehicle: Klucel (hydroxypropylcellulose) (HPC) 96 % of control | dose: 100.0 mg/kg/injection, schedule: Q01DX001 (ip), vehicle: Klucel (hydroxypropylcellulose) (HPC) 91 % of control | dose: 200.0 mg/kg/injection, schedule: Q01DX001 (ip), vehicle: Klucel (hydroxypropylcellulose) (HPC) 98 % of control

C[C@]12C=CC(=O)C=C1CC[C@@H]1[C@@H]2[C@@H](O)C[C@@]2(C)[C@H]1CC[C@]2(O)C(=O)COC(=O)CCC(=O)O
inactive: dose: 63.0 mg/kg/injection, schedule: Q01DX015 (sc), vehicle: steriod suspending solution 106 % of control | dose: 125.0 mg/kg/injection, schedule: Q01DX015 (sc), vehicle: steriod suspending solution 106 % of control | dose: 250.0 mg/kg/injection, schedule: Q01DX015 (sc), vehicle: steriod suspending solution 96 % of control | dose: 500.0 mg/kg/injection, schedule: Q01DX015 (sc), vehicle: steriod suspending solution 108 % of control and 116 % of control

CCCCN1CCCC(O)C1 (stereo not drawn)
inactive: [4] 97 % of control | [5] 104 % of control

O=C1OC(=O)C2C3CC(C(Br)C3C(F)(Br)Br)C12 (stereo not drawn)
inactive: dose: 100.0 mg/kg/injection, schedule: Q01DX009 (ip), vehicle: saline with Tween-80 87 % of control | [6] 115 % of control | dose: 200.0 mg/kg/injection, schedule: Q01DX009 (ip), vehicle: saline with Tween-80 93 % of control | [7] 98 % of control | dose: 400.0 mg/kg/injection, schedule: Q01DX009 (ip), vehicle: saline with Tween-80 90 % of control | [8] 91 % of control

c1ccc(CC(Cc2ccccc2)CN2CCCC2)cc1
inactive: dose: 100.0 mg/kg/injection, schedule: Q01DX009 (ip), vehicle: saline 94 % of control | [4] 95 % of control | dose: 200.0 mg/kg/injection, schedule: Q01DX009 (ip), vehicle: saline 102 % of control | [5] 94 % of control | dose: 400.0 mg/kg/injection, schedule: Q01DX009 (ip), vehicle: saline 103 % of control | dose: 400.0 mg/kg/injection, schedule: Q04DX003 (ip), vehicle: saline 89 % of control

COc1ccccc1C(C)=O
inactive: dose: 50.0 mg/kg/injection, schedule: Q01DX009 (ip), vehicle: Klucel (hydroxypropylcellulose) (HPC) 97 % of control | [9] 100 % of control | [10] 87 % of control

Cc1ccc(S(=O)(=O)NC(=O)O/N=C/c2ccccn2)cc1
inactive: [6] 98 % of control | [7] 101 % of control | [8] 104 % of control

CCOC(=O)CCC(C)C(C)=O (stereo not drawn)
inactive: [11] 108 % of control | [1] 109 % of control | [12] 103 % of control | [2] 98 % of control | dose: 200.0 mg/kg/injection, schedule: Q04DX002 (ip), vehicle: saline with Tween-80 108 % of control | [3] 98 % of control

CCn1ncc2ccccc2c1=O
inactive: [1] 96 % of control | [2] 97 % of control

COc1ccccc1C=O
inactive: [9] 90 % of control | [10] 90 % of control | dose: 400.0 mg/kg/injection, schedule: Q01DX009 (ip), vehicle: Klucel (hydroxypropylcellulose) (HPC) 106 % of control

O=[N+]([O-])c1cc(Cl)cc2c1-c1c(Cl)cc(Cl)cc1C2O (stereo not drawn)
inactive: [9] 91 % of control | [13] 104 % of control | [10] 104 % of control | [14] 103 % of control | [15] 97 % of control

COc1ccc(NC(=O)O/N=C2\CN(S(=O)(=O)c3ccc(C)cc3)CCc3ccccc32)cc1
inactive: [13] 91 % of control | [14] 94 % of control | [15] 96 % of control

Cc1c[n+]2ccc3ccccc3c2c2ccccc12
inactive: dose: 1.0 mg/kg/injection, schedule: Q01DX015 (ip), vehicle: carboxymethylcellulose (CMC) 100 % of control | dose: 1.25 mg/kg/injection, schedule: Q01DX009 (ip), vehicle: saline 94 % of control | dose: 2.0 mg/kg/injection, schedule: Q01DX015 (ip), vehicle: carboxymethylcellulose (CMC) 105 % of control | dose: 2.5 mg/kg/injection, schedule: Q01DX009 (ip), vehicle: saline 95 % of control | dose: 2.5 mg/kg/injection, schedule: Q04DX003 (ip), vehicle: acetone 103 % of control | dose: 4.0 mg/kg/injection, schedule: Q01DX015 (ip), vehicle: carboxymethylcellulose (CMC) 117 % of control | dose: 5.0 mg/kg/injection, schedule: Q01DX001 (ip), vehicle: acetone 106 % of control | dose: 5.0 mg/kg/injection, schedule: Q01DX009 (ip), vehicle: saline 113 % of control | dose: 5.0 mg/kg/injection, schedule: Q04DX003 (ip), vehicle: acetone 101 % of control | dose: 7.0 mg/kg/injection, schedule: Q01DX009 (ip), vehicle: saline 113 % of control | dose: 8.0 mg/kg/injection, schedule: Q01DX015 (ip), vehicle: carboxymethylcellulose (CMC) 112 % of control | dose: 10.0 mg/kg/injection, schedule: Q01DX001 (ip), vehicle: acetone 117 % of control

CC12CCC(=O)CC1CCC1C2CCC2(C)C(C(=O)O)CCC12 (stereo not drawn)
inactive: dose: 25.0 mg/kg/injection, schedule: Q04DX002 (ip), vehicle: saline with Tween-80 99 % of control | [11] 96 % of control | [12] 108 % of control

O=C(O)CSc1cc(Cl)c(Cl)cc1Cl
inactive: dose: 87.5 mg/kg/injection, schedule: Q04DX003 (ip), vehicle: other 100 % of control | dose: 175.0 mg/kg/injection, schedule: Q04DX003 (ip), vehicle: other 110 % of control

O=C(CCc1ccc(O)cc1)c1c(O)cc(O)cc1O
inactive: [1] 96 % of control | [2] 94 % of control | [3] 92 % of control

CCCCCOC(CN)C(Cl)(Cl)Cl (stereo not drawn)
inactive: dose: 25.0 mg/kg/injection, schedule: Q01DX009 (ip), vehicle: saline 93 % of control | dose: 50.0 mg/kg/injection, schedule: Q01DX009 (ip), vehicle: saline 97 % of control | [4] 91 % of control
